From patent publication US9504747B2, “Lipids and lipid compositions for the delivery of active agents” (Novartis AG, priority 2013, dated 2016) come the findings set out here.

One data set in a line: Polydispersity index (PDI) of the lipid nanoparticle (dynamic light scattering). The note with it: Table 4; FVII siRNA LNP; Chol/DSPC/stealth lipid S010, 45/44/9/2. The format is physicochemical. The text has this:
The lipid nanoparticles (LNPs) were formed by mixing equal volumes of lipids dissolved in alcohol with siRNA dissolved in a citrate buffer by an impinging jet process. […] The siRNA to total lipid ratio is approximately 0.05 (wt/wt). Where a LNP formulation contains four lipid components, the molar ratios correspond to the type of lipid as it appears in the first four columns of the table, in the order that they appear. The ratio of the lipids ranges from 20 to 70 mole percent for the cationic lipid with a target of 40-60, the mole percent of helper lipid ranges from 20 to 70 with a target of 30 to 50, the mole percent of neutral lipid ranges from 0-30, the mole percent of PEG lipid has a range from 1 to 6 with a target of 2 to 5. The concentration of siRNA solution ranges from 0.7 to 1.0 mg/mL with a target of 0.8 to 0.9 mg/mL in a sodium citrate: sodium chloride buffer pH 4-6, with a target of 4.5-5.5. The LNPs are formed by mixing equal volumes of lipid solution in ethanol with siRNA dissolved in a citrate buffer by an impinging jet process through a mixing device with ID ranging from 0.25 to 2.0 mm at a flow rate from 10 to 640 mL/min. The mixed LNP solution is held at room temperature for 0-24 hrs prior to a dilution step. […] The final product is sterile filtered and stored at 4° C. Unless indicated otherwise, all PDIs referred to herein are the PDI of the fully formed nanoparticle, as measured by dynamic light scattering on a Malvern Zetasizer. The nanoparticle sample was diluted in phosphate buffered saline (PBS) so that the count rate was approximately 200-400 kcts. The data is presented in Tables 4 and 5 as a weighted average of the intensity measure.
Regarding `CCCCC/C=C\C/C=C\CCCCCCCC(=O)OCCCCCCCCOc1cc(CN(C)C)cc(OCCCCCCCCOC(=O)CCCCCCC/C=C\C/C=C\CCCCC)c1` [Example 46], the PDI amounted to 0.135.

`CCCCC/C=C\CC=CCCCCCCCC(=O)OCCCCOc1cc(CN(C)C)cc(OCCCCOC(=O)CCCCCCCC=CC/C=C\CCCCC)c1C` [Example 51] showed a PDI of 0.052.

As for `CCCCC/C=C\C/C=C\CCCCCCCCOC(=O)CCC(=O)OCc1cc(COC(=O)CCC(=O)OCCCCCCCC/C=C\C/C=C\CCCCC)cc(CN(C)C)c1` [Example 77], the PDI stood at 0.014.

The molecule `CCCCCCCC(=O)OCCCCCCCCCCOC(=O)CCC(=O)OCc1cc(COC(=O)CCC(=O)OCCCCCCCCCCOC(=O)CCCCCCC)cc(CN(C)C)c1` [Example 78] showed a PDI of 0.043.

The molecule `CCCCCCCCCC(=O)OCCCCCCCC(=O)OCc1cc(COC(=O)CCCCCCCOC(=O)CCCCCCCCC)cc(CN(C)C)c1` [Example 83] registered a PDI of 0.005.

As for `CCCCC/C=C\C/C=C\CCCCCCCCOC(=O)CCCCOc1cc(CN(C)C)cc(OCCCCC(=O)OCCCCCCCC/C=C\C/C=C\CCCCC)c1` [Example 89], the PDI turned out to be 0.076.

With `CCCCCCCCOC(=O)CCCCCCCC(=O)OCCCOc1cc(CN(C)C)cc(OCCCOC(=O)CCCCCCCC(=O)OCCCCCCCC)c1` [Example 98], the PDI is 0.096.

`CCCCCCCC(=O)OCC(COC(=O)CCCCCCC)OC(=O)CCC(=O)OCc1cc(COC(=O)CCC(=O)OC(COC(=O)CCCCCCC)COC(=O)CCCCCCC)cc(CN(C)C)c1` [Example 107]: the PDI worked out at 0.071.

In turn, `CCCCC/C=C\C/C=C\CCCCCCCC(=O)OCCCCOc1cc(CN(C)C)cc(OCCCCOC(=O)CC(CCCCCCCC)CCCCCCCC)c1` [Example 109] yielded a PDI of 0.09.

A further data set can be described thus: Particle size of the lipid nanoparticle (dynamic light scattering, Malvern Zetasizer). The format is physicochemical. The note with it: Table 4; FVII siRNA LNP; Chol/DSPC/stealth lipid S010, molar ratio 45/44/9/2; Z-average. The source says: The lipid nanoparticles have a size of about 1 to about 2,500 nm, about 1 to about 1,500 nm, about 1 to about 1,000 nm, in a sub-embodiment about 50 to about 600 nm, in a sub-embodiment about 50 to about 400 nm, in a sub-embodiment about 50 to about 250 nm, and in a sub-embodiment about 50 to about 150 nm. Unless indicated otherwise, all sizes referred to herein are the average sizes (diameters) of the fully formed nanoparticle, as measured by dynamic light scattering on a Malvern Zetasizer. The nanoparticle sample is diluted in phosphate buffered saline (PBS) so that the count rate is approximately 200-400 kcts. The data is presented as a weighted average of the intensity measure. The lipid nanoparticles (LNPs) were formed by mixing equal volumes of lipids dissolved in alcohol with siRNA dissolved in a citrate buffer by an impinging jet process. […] The siRNA to total lipid ratio is approximately 0.05 (wt/wt). Where a LNP formulation contains four lipid components, the molar ratios correspond to the type of lipid as it appears in the first four columns of the table, in the order that they appear. The ratio of the lipids ranges from 20 to 70 mole percent for the cationic lipid with a target of 40-60, the mole percent of helper lipid ranges from 20 to 70 with a target of 30 to 50, the mole percent of neutral lipid ranges from 0-30, the mole percent of PEG lipid has a range from 1 to 6 with a target of 2 to 5. The concentration of siRNA solution ranges from 0.7 to 1.0 mg/mL with a target of 0.8 to 0.9 mg/mL in a sodium citrate: sodium chloride buffer pH 4-6, with a target of 4.5-5.5. The LNPs are formed by mixing equal volumes of lipid solution in ethanol with siRNA dissolved in a citrate buffer by an impinging jet process through a mixing device with ID ranging from 0.25 to 2.0 mm at a flow rate from 10 to 640 mL/min. The mixed LNP solution is held at room temperature for 0-24 hrs prior to a dilution step. […] The final product is sterile filtered and stored at 4° C. Unless indicated otherwise, all particle size measurements referred to in Tables 4 and 5 are the Z-average particle size of the fully formed nanoparticle, as measured by dynamic light scattering on a Malvern Zetasizer. The nanoparticle sample was diluted in phosphate buffered saline (PBS) so that the count rate is approximately 200-400 kcts.
On to `CCCCC/C=C\C/C=C\CCCCCCCC(=O)OCCCCCCCCOc1cc(CN(C)C)cc(OCCCCCCCCOC(=O)CCCCCCC/C=C\C/C=C\CCCCC)c1` [Example 46], for which the “Size (nm)” value is 102.4 nm.

Take `CCCCC/C=C\CC=CCCCCCCCC(=O)OCCCCOc1cc(CN(C)C)cc(OCCCCOC(=O)CCCCCCCC=CC/C=C\CCCCC)c1C` [Example 51]: the “Size (nm)” value worked out at 103.2 nm.

Another data set is described as follows: pKa measurement of the cationic lipid (TNS fluorescence vs pH). The format is physicochemical. The note with it: probe TNS (fluorescent probe), Table 4; pKa of the cationic lipid of formula (I). On the procedure:
Unless indicated otherwise, all pKa's referred to herein were measured at standard temperature and pressure. Also, unless otherwise indicated, all references to pKa are references to pKa measured using the following technique. 2 mM solution of lipid in ethanol was prepared by weighing the lipid and then dissolving it in ethanol. 0.3 mM solution of fluorescent probe TNS in ethanol:methanol 9:1 was prepared by first making 3 mM solution of TNS in methanol and then diluting to 0.3 mM with ethanol. An aqueous buffer containing 200 mM sodium phosphate dibasic and 100 mM citric acid was prepared. […] Using the Hamilton Microlab Star high throughput liquid handler and Hamilton run control software Software, 7.5 uL of probe/lipid mix were added to 242.5 uL of buffer in a 1 mL 96 well plate (model NUNC 260252, […] Nunc International). This was done with all twelve buffers. After mixing in 1 mL 96 well plate, 100 uL of each probe/lipid/buffer mixture was transferred to a 250 uL black with clear bottom 96 well plate (model COSTAR 3904, Corning). The fluorescence measurements are carried out on the SpectraMax M5 spectrophotometer using software SoftMax pro 5.2 and following parameters: After the measurement, the background fluorescence value of an empty well on the 96 well plate was subtracted from each probe/lipid/buffer mixture. The fluorescence intensity values were then normalized to the value at lowest pH. The normalized fluorescence intensity vs. pH chart was then plotted in the Microsoft Excel software. The twelve points were connected with a smooth line. The point on the line at which the normalized fluorescence intensity was equal to 0.5 was found. […] The pKa determined using this method is precise to about 0.1 pKa units.
`CCCCC/C=C\C/C=C\CCCCCCCC(=O)OCCCCCCCCOc1cc(CN(C)C)cc(OCCCCCCCCOC(=O)CCCCCCC/C=C\C/C=C\CCCCC)c1` [Example 46] showed a pKa of 6.18.

Molecule `CCCCC/C=C\C/C=C\CCCCCCCCOC(=O)CCC(=O)OCc1cc(COC(=O)CCC(=O)OCCCCCCCC/C=C\C/C=C\CCCCC)cc(CN(C)C)c1` [Example 77] displayed a pKa of 6.09. The pKa values of the last two molecules are within 0.2 log units of each other.

In turn, `CCCCCCCC(=O)OCCCCCCCCCCOC(=O)CCC(=O)OCc1cc(COC(=O)CCC(=O)OCCCCCCCCCCOC(=O)CCCCCCC)cc(CN(C)C)c1` [Example 78] had a pKa of 6.02.

For `CCCCCCCCCC(=O)OCCCCCCCC(=O)OCc1cc(COC(=O)CCCCCCCOC(=O)CCCCCCCCC)cc(CN(C)C)c1` [Example 83], the pKa was found to be 6.15.

In turn, `CCCCC/C=C\C/C=C\CCCCCCCCOC(=O)CCCCOc1cc(CN(C)C)cc(OCCCCC(=O)OCCCCCCCC/C=C\C/C=C\CCCCC)c1` [Example 89] returned a pKa of 6.02.

`CCCCCCCCOC(=O)CCCCCCCC(=O)OCCCOc1cc(CN(C)C)cc(OCCCOC(=O)CCCCCCCC(=O)OCCCCCCCC)c1` [Example 98] had a pKa of 5.94.

Regarding `CCCCCCCC(=O)OCC(COC(=O)CCCCCCC)OC(=O)CCC(=O)OCc1cc(COC(=O)CCC(=O)OC(COC(=O)CCCCCCC)COC(=O)CCCCCCC)cc(CN(C)C)c1` [Example 107], the pKa stood at 6.11. The pKa values of the last two molecules are within 0.2 log units of each other.

For `CCCCC/C=C\C/C=C\CCCCCCCC(=O)OCCCCOc1cc(CN(C)C)cc(OCCCCOC(=O)CC(CCCCCCCC)CCCCCCCC)c1` [Example 109], the pKa came out at 5.98. This pKa and that of the molecule before are within 0.2 log units of each other.

The term pKa denotes the pH at which an ionisable group is half protonated. Lower therefore signals a stronger acid or weaker base.
